Here are results for 21 compounds from PubChem BioAssay AID330 (DTP/NCI, 2004).

“And” between values parts separate entries of the source, which are not always exact repeats. Equal entries are not always repeated. Toxic doses and inconclusive results are not listed.

In this assay the test system is P388 leukemia ip, CD2F1 mice, survival T/C. Kind of assay: NCI In Vivo Anticancer Drug Screen. Data for tumor model P388 Leukemia (intraperitoneal) in CD2F1 (CDF1) mice. As to conditions: endpoint: median survival time, higher = longer survival. An outline of the steps: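 Mice carrying the transplanted tumor received test compound or vehicle. Survival was recorded in each group, and the value is the treated-group measurement divided by that of the vehicle-treated control group.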

Where [1] appears, read: dose: 50.0 mg/kg/injection, schedule: Q01DX005 (ip), vehicle: Klucel (hydroxypropylcellulose) (HPC).
Where [2] appears, read: dose: 100.0 mg/kg/injection, schedule: Q01DX005 (ip), vehicle: Klucel (hydroxypropylcellulose) (HPC).
[3] abbreviates: dose: 200.0 mg/kg/injection, schedule: Q01DX005 (ip), vehicle: Klucel (hydroxypropylcellulose) (HPC).
[4] abbreviates: dose: 50.0 mg/kg/injection, schedule: Q01DX009 (ip), vehicle: saline with Tween-80.
The mark [5] stands for this setting: dose: 100.0 mg/kg/injection, schedule: Q04DX002 (ip), vehicle: saline with Tween-80.
Setting [6] is: dose: 200.0 mg/kg/injection, schedule: Q04DX002 (ip), vehicle: saline with Tween-80.
[7] abbreviates: dose: 400.0 mg/kg/injection, schedule: Q04DX002 (ip), vehicle: saline with Tween-80.
The mark [8] stands for this setting: dose: 60.0 mg/kg/injection, schedule: Q01DX005 (ip), vehicle: Klucel (hydroxypropylcellulose) (HPC).
Where [9] appears, read: dose: 120.0 mg/kg/injection, schedule: Q01DX005 (ip), vehicle: Klucel (hydroxypropylcellulose) (HPC).
The mark [10] stands for this setting: dose: 240.0 mg/kg/injection, schedule: Q01DX005 (ip), vehicle: Klucel (hydroxypropylcellulose) (HPC).
Where [11] appears, read: dose: 50.0 mg/kg/injection, schedule: Q01DX009 (ip), vehicle: saline.
The mark [12] stands for this setting: dose: 100.0 mg/kg/injection, schedule: Q01DX009 (ip), vehicle: Klucel (hydroxypropylcellulose) (HPC).
[13] abbreviates: dose: 200.0 mg/kg/injection, schedule: Q01DX009 (ip), vehicle: Klucel (hydroxypropylcellulose) (HPC).
Where [14] appears, read: dose: 50.0 mg/kg/injection, schedule: Q01DX005 (ip), vehicle: saline with Tween-80.
[15] abbreviates: dose: 100.0 mg/kg/injection, schedule: Q01DX005 (ip), vehicle: saline with Tween-80.
Where [16] appears, read: dose: 200.0 mg/kg/injection, schedule: Q01DX005 (ip), vehicle: saline with Tween-80.

Take `CC(C)C12OC1C1OC13C1(C)CCC(O)CC1CC1OC13C2O` (stereo not given): the T/C runs as follows: (dose: 0.03 mg/kg/injection, schedule: Q01DX009 (ip), vehicle: saline + alcohol) 103 % of control and 101 % of control and 111 % of control; (dose: 0.06 mg/kg/injection, schedule: Q01DX009 (ip), vehicle: saline + alcohol) 102 % of control and 111 % of control; (dose: 0.12 mg/kg/injection, schedule: Q01DX009 (ip), vehicle: saline + alcohol) 115 % of control and 109 % of control and 107 % of control; (dose: 0.25 mg/kg/injection, schedule: Q01DX009 (ip), vehicle: saline + alcohol) 111 % of control and 106 % of control and 117 % of control; (dose: 0.5 mg/kg/injection, schedule: Q01DX009 (ip), vehicle: saline + alcohol) 115 % of control and 109 % of control; (dose: 1.0 mg/kg/injection, schedule: Q01DX009 (ip), vehicle: saline + alcohol) 109 % of control and 115 % of control. Further, the T/C reads like this: (dose: 2.0 mg/kg/injection, schedule: Q01DX009 (ip), vehicle: saline + alcohol) 111 % of control and 103 % of control and 106 % of control; (dose: 4.0 mg/kg/injection, schedule: Q01DX009 (ip), vehicle: saline + alcohol) 103 % of control and 100 % of control; (dose: 8.0 mg/kg/injection, schedule: Q01DX009 (ip), vehicle: saline + alcohol) 103 % of control and 100 % of control; (dose: 16.0 mg/kg/injection, schedule: Q01DX009 (ip), vehicle: saline + alcohol) 102 % of control and 103 % of control.
In the case of `CC(=O)c1cccc(OCC(O)CN2CCN(c3ccc(C)cc3)CC2)c1` (stereo not given), the T/C is 107 % of control (dose: 100.0 mg/kg/injection, schedule: Q04DX003 (ip), vehicle: Klucel (hydroxypropylcellulose) (HPC)) and 91 % of control (dose: 400.0 mg/kg/injection, schedule: Q04DX003 (ip), vehicle: Klucel (hydroxypropylcellulose) (HPC)).
As to `Nc1ccc(N)c2c1C(=O)c1c(N)ccc(N)c1C2=O`, the T/C under setting [1] is 102 % of control, the T/C under setting [2] was 100 % of control and the T/C under setting [3] is 101 % of control.
Take `CCOCC1COc2c(cc3[nH]cc(C(=O)OCC)c(=O)c3c2Cl)O1` (stereo not given) (tested in a mixture with another compound): the T/C runs as follows: under setting [4], 94 % of control; (dose: 100.0 mg/kg/injection, schedule: Q01DX009 (ip), vehicle: saline with Tween-80) 99 % of control; (dose: 200.0 mg/kg/injection, schedule: Q01DX009 (ip), vehicle: saline with Tween-80) 101 % of control.
With `O=C(NC(Cc1ccc(Br)cc1)C(=O)O)c1ccc(Br)cc1` (stereo not given), the T/C is, setting by setting: under setting [1], 104 % of control; under setting [2], 101 % of control; under setting [3], 104 % of control.
On to `C=CC(C)(C)C(O)C=C(C)C` (stereo not given), for which the T/C reads like this: under setting [5], 99 % of control; under setting [6], 100 % of control; under setting [7], 101 % of control.
`CC12CCCC([N+](=O)[O-])(C1)NC(=O)C2C#N` (stereo not given): the T/C is 108 % of control under setting [8], 95 % of control under setting [9] and 100 % of control under setting [10].
With `CCOC(=O)C1=NN(c2ccccc2)CC1C(=O)OC` (stereo not given), the T/C was 103 % of control (dose: 50.0 mg/kg/injection, schedule: Q04DX002 (ip), vehicle: suspension in saline); 100 % of control (dose: 100.0 mg/kg/injection, schedule: Q04DX002 (ip), vehicle: suspension in saline); 98 % of control (dose: 200.0 mg/kg/injection, schedule: Q04DX002 (ip), vehicle: suspension in saline).
For `CC(C)=CCC(OC1OC(CO)C(O)C(O)C1N)C1=CC(=O)c2c(O)ccc(O)c2C1=O` (stereo not given), the T/C runs as follows: (dose: 2.5 mg/kg/injection, schedule: Q04DX002 (ip), vehicle: saline) 103 % of control; (dose: 5.0 mg/kg/injection, schedule: Q04DX002 (ip), vehicle: saline) 111 % of control; (dose: 10.0 mg/kg/injection, schedule: Q04DX002 (ip), vehicle: saline) 114 % of control; (dose: 20.0 mg/kg/injection, schedule: Q04DX002 (ip), vehicle: saline) 113 % of control; (dose: 40.0 mg/kg/injection, schedule: Q04DX002 (ip), vehicle: saline) 111 % of control.
In the case of `Cn1/c2cc/c1=C(\c1ccc(S(=O)(=O)O)cc1)c1ccc([n-]1)/C(c1ccc(S(=O)(=O)O)cc1)=c1/cc/c([nH]1)=C(\c1ccc(S(=O)(=O)O)cc1)c1ccc([n-]1)/C=2c1ccc(S(=O)(=O)O)cc1.O.O=S(=O)(O)C(F)(F)F.[Cu+2]`, the T/C by setting is: (dose: 12.5 mg/kg/injection, schedule: Q01DX009 (ip), vehicle: saline with Tween-80) 112 % of control; (dose: 25.0 mg/kg/injection, schedule: Q01DX009 (ip), vehicle: saline with Tween-80) 121 % of control; under setting [4], 119 % of control; under setting [11], 92 % of control; (dose: 100.0 mg/kg/injection, schedule: Q01DX009 (ip), vehicle: saline) 100 % of control.
Take `CC(=O)OCC12CCC(C)=CC1O[C@H]1[C@@H](OC(C)=O)[C@H](OC(C)=O)[C@]2(C)[C@@]12CO2` (stereo not given in full): the T/C is 115 % of control (dose: 0.2 mg/kg/injection, schedule: Q01DX009 (ip), vehicle: saline + alcohol); 173 % of control (dose: 0.8 mg/kg/injection, schedule: Q01DX009 (ip), vehicle: saline + alcohol); 120 % of control (dose: 2.0 mg/kg/injection, schedule: Q04DX003 (ip), vehicle: saline + alcohol).
`CC1(C)C(N2CCOCC2)C(c2ccccc2)S1(=O)=O` (stereo not given): the T/C is, setting by setting: (dose: 50.0 mg/kg/injection, schedule: Q01DX001 (ip), vehicle: saline with Tween-80) 91 % of control; (dose: 100.0 mg/kg/injection, schedule: Q01DX001 (ip), vehicle: saline with Tween-80) 100 % of control; (dose: 200.0 mg/kg/injection, schedule: Q01DX001 (ip), vehicle: saline with Tween-80) 95 % of control.
As for `CCC(C)C1CCCCC1` (stereo not given), the T/C under setting [12] was 104 % of control; the T/C under setting [13] was 100 % of control; the T/C (dose: 400.0 mg/kg/injection, schedule: Q01DX009 (ip), vehicle: Klucel (hydroxypropylcellulose) (HPC)) was 101 % of control.
For `CCOC(=O)c1c(C)noc1NC`, the T/C is, setting by setting: under setting [8], 100 % of control; under setting [9], 101 % of control; under setting [10], 100 % of control.
Turning to `CN(C)C(C(N(C)C)=[N+](C)C)=[N+](C)C`, the T/C by setting is: (dose: 12.5 mg/kg/injection, schedule: Q01DX009 (ip), vehicle: saline) 108 % of control and 109 % of control and 89 % of control; (dose: 25.0 mg/kg/injection, schedule: Q01DX009 (ip), vehicle: saline) 110 % of control and 111 % of control; under setting [11], 100 % of control and 103 % of control and 88 % of control.
On to `O=C1Nc2ccccc2/C1=C/c1ccc(Cl)c(Cl)c1`, for which the T/C (dose: 6.25 mg/kg/injection, schedule: Q01DX009 (ip), vehicle: Klucel (hydroxypropylcellulose) (HPC)) is 96 % of control; the T/C (dose: 12.5 mg/kg/injection, schedule: Q01DX009 (ip), vehicle: Klucel (hydroxypropylcellulose) (HPC)) is 95 % of control; the T/C (dose: 25.0 mg/kg/injection, schedule: Q01DX009 (ip), vehicle: Klucel (hydroxypropylcellulose) (HPC)) was 92 % of control; the T/C under setting [12] is 86 % of control; the T/C under setting [13] was 90 % of control.
In the case of `Cc1cccc2c(=O)c(CCl)c(-c3ccccc3)sc12`, the T/C by setting is: under setting [14], 103 % of control; under setting [15], 116 % of control; under setting [16], 119 % of control.
In the case of `COc1nc(N)nc2c1ncn2C1CC(O)C(CO)O1` (stereo not given), the T/C by setting is: under setting [1], 100 % of control; under setting [2], 100 % of control; under setting [3], 112 % of control.
In the case of `CN(CCN1C(=O)c2cccc3cc(N)cc(c23)C1=O)CCN1C(=O)c2cccc3cc(N)cc(c23)C1=O`, the T/C is, setting by setting: under setting [14], 112 % of control; under setting [15], 106 % of control; under setting [16], 107 % of control.
Take `Clc1ccc(N=Cc2cccs2)c(Cl)c1`: the T/C (dose: 50.0 mg/kg/injection, schedule: Q01DX009 (ip), vehicle: Klucel (hydroxypropylcellulose) (HPC)) is 118 % of control; the T/C under setting [12] was 107 % of control; the T/C under setting [13] was 110 % of control.
Take `O=C(c1ccccc1)C1(c2ccccc2)CCN(Cc2ccccc2)CC1`: the T/C under setting [5] was 93 % of control, the T/C under setting [6] is 86 % of control and the T/C under setting [7] is 94 % of control.
